Where two headings read alike, the source gives them in different places.
Columns and labels:
[1] = molecular target: Human HDAC6 (Homo sapiens (Human), UniProt Q9UBN7); assay: HDAC6 inhibition assay (fluorogenic p53 peptide substrate); assay type: biochemical; conditions: for IC50: mean of two experiments (TSA: 9), 10-dose, 3-fold serial dilution from 30 μM, read-out: HDAC6 IC50 (μM) ± SD
[2] = molecular target: Human HDAC1 (Homo sapiens (Human), UniProt Q13547); assay: HDAC1 inhibition assay (fluorogenic p53 peptide substrate); assay type: biochemical; conditions: read-out: HDAC1 IC50 (μM) ± SD
[3] = molecular target: HDAC5 (Homo sapiens (Human), UniProt Q9UQL6); assay: biochemical; conditions: mean of two experiments; read-out: HDAC5 IC50 (μM) ± SD
[4] = tested on: mice with colitis; assay: Colitis in mice; assay type: in vivo; conditions: treatment begun once colitis had developed
Excerpt: Studies of autoimmunity also are undertaken. In this case, interruption of existing disease is especially important and HDAC6 targeting can be efficacious without any requirement for additional therapy (in contrast to a need for brief low-dose RPM in the very aggressive, fully MHC-mismatched transplant models). […] These studies are extended by assessing whether deletion of HDAC6 in Tregs (Foxp3/Cre) vs. T cells (CD4=Cre) vs. DC (CD11c-Cre) differentially affect the development and severity of colitis. Similarly, control of colitis is assessed by inducing HDAC6 deletion at varying intervals after the onset of colitis with tamoxifen-regulated Cre.

[5] = molecular target: HDAC2 (Homo sapiens (Human), UniProt Q92769); assay: biochemical
[6] = molecular target: HDAC7 (Homo sapiens (Human), UniProt Q8WUI4); assay: HDAC7 inhibition assay
[7] = tested on: Aβ-infused mice; assay: Contextual fear conditioning after Aβ42 infusion; assay type: in vivo
Experimental: In this test, mice were infused with Aβ42 via cannulas implanted into dorsal hippocampus 15 minutes prior to training. […] Fear learning was assessed 24 hours later.

[8] = tested on: mice; assay: Visible platform test; assay type: in vivo; conditions: injected twice a day for two days
[9] = tested on: murine Treg; assay: Murine Treg suppression; assay type: cell-based
[10] = tested on: collagen-induced arthritis model in DBA1/J mice; assay: Collagen-induced arthritis model; assay type: in vivo; conditions: 50 and 100 mg/kg IP
Excerpt: In this test, DBA1/J mice (male, 7-8 weeks) were used, with 8 animals per group. Systemic arthritis was induced with bovine collagen type II and CFA, plus an IFA booster injection on day 21.
The results are summarized in FIG. 3, containing graphs of Average Arthritic Score vs. Days of Treatment.

[11] = tested on: primary cortical neurons; assay: HCA oxidative stress neuroprotection assay (MTT viability)
[12] = mean of two experiments (TSA: 9), 10-dose, 3-fold serial dilution from 30 μM

Human HDAC1, sequence (Q13547 whole entry): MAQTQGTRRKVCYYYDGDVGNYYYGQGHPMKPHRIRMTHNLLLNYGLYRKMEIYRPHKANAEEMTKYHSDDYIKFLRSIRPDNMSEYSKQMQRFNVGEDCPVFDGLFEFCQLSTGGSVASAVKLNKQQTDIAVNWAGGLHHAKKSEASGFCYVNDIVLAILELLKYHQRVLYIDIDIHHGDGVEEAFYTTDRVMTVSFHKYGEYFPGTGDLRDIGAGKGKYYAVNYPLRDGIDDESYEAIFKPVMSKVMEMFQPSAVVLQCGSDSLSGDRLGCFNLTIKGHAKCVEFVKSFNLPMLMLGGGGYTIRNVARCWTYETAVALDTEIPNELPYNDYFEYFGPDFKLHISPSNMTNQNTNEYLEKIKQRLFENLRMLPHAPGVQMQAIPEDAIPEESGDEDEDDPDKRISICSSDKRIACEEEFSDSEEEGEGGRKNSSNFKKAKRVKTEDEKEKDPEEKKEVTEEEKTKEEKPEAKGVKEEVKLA
Human HDAC6, sequence (Q9UBN7 whole entry): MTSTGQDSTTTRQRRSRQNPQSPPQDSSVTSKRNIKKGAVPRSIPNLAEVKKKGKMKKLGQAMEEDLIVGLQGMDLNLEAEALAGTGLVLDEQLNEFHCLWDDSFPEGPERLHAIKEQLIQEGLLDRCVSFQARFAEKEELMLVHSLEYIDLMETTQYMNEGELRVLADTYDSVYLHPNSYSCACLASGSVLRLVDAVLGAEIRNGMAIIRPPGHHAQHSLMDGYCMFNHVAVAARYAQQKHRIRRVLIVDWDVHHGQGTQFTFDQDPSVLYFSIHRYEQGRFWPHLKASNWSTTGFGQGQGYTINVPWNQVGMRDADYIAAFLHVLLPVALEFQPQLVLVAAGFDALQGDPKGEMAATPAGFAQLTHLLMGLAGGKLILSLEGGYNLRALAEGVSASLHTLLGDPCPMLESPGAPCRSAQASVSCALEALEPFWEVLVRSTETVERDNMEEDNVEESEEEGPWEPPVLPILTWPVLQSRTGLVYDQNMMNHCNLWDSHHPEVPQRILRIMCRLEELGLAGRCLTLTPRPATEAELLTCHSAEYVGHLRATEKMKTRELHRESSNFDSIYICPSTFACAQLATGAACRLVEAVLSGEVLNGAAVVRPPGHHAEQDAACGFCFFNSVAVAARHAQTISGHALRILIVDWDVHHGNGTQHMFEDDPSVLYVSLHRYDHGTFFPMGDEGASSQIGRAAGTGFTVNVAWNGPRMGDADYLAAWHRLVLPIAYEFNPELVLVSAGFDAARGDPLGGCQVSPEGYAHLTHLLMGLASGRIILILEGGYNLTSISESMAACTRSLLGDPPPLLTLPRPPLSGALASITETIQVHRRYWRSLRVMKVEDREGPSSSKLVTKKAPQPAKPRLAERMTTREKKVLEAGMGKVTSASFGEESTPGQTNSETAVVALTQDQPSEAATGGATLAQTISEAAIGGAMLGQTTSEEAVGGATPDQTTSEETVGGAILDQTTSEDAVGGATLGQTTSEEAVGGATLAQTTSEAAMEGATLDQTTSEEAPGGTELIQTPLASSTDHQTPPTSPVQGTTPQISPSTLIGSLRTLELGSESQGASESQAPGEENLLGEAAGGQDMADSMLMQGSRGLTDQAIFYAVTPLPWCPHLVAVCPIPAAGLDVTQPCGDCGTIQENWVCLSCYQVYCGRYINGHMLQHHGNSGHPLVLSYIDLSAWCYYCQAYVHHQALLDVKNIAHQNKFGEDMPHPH
HDAC7, sequence (Q8WUI4 whole entry, the tested form may be a part): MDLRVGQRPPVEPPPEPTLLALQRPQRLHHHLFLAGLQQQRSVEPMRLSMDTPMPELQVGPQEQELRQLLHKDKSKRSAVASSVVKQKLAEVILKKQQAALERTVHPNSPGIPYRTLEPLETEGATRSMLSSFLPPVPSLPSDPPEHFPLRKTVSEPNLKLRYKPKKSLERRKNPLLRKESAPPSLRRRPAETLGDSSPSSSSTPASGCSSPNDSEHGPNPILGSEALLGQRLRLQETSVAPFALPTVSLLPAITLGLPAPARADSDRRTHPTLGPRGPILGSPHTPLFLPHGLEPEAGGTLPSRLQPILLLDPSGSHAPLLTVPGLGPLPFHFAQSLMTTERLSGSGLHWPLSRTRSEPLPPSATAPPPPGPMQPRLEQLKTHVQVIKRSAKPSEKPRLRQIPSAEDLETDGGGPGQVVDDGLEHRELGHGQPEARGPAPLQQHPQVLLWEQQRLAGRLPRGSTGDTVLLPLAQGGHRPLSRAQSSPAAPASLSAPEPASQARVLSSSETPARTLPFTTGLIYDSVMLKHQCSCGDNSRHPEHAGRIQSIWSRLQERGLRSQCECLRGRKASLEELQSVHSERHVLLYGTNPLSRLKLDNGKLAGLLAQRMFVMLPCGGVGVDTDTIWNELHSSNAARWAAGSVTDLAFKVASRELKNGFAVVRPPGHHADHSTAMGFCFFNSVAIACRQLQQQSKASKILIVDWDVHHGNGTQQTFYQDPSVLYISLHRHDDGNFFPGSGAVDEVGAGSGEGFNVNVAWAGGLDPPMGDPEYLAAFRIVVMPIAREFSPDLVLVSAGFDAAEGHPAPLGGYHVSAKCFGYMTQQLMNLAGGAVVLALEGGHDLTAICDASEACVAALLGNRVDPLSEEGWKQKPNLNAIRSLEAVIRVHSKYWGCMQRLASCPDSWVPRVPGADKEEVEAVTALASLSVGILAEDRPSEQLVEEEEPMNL
HDAC2, sequence (Q92769 whole entry): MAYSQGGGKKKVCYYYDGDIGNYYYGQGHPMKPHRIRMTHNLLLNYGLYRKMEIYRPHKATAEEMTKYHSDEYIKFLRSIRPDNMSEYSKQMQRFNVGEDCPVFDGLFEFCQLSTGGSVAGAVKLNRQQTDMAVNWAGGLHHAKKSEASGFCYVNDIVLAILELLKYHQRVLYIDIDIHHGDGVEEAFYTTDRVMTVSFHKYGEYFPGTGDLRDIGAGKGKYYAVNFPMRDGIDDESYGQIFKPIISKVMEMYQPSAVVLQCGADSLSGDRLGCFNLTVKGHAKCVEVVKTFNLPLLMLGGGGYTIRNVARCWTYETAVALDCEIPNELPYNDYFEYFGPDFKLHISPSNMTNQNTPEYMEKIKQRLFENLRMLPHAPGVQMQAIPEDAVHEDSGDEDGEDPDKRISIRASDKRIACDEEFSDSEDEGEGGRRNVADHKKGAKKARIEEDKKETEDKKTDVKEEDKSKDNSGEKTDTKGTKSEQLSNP
HDAC5, sequence (Q9UQL6 whole entry): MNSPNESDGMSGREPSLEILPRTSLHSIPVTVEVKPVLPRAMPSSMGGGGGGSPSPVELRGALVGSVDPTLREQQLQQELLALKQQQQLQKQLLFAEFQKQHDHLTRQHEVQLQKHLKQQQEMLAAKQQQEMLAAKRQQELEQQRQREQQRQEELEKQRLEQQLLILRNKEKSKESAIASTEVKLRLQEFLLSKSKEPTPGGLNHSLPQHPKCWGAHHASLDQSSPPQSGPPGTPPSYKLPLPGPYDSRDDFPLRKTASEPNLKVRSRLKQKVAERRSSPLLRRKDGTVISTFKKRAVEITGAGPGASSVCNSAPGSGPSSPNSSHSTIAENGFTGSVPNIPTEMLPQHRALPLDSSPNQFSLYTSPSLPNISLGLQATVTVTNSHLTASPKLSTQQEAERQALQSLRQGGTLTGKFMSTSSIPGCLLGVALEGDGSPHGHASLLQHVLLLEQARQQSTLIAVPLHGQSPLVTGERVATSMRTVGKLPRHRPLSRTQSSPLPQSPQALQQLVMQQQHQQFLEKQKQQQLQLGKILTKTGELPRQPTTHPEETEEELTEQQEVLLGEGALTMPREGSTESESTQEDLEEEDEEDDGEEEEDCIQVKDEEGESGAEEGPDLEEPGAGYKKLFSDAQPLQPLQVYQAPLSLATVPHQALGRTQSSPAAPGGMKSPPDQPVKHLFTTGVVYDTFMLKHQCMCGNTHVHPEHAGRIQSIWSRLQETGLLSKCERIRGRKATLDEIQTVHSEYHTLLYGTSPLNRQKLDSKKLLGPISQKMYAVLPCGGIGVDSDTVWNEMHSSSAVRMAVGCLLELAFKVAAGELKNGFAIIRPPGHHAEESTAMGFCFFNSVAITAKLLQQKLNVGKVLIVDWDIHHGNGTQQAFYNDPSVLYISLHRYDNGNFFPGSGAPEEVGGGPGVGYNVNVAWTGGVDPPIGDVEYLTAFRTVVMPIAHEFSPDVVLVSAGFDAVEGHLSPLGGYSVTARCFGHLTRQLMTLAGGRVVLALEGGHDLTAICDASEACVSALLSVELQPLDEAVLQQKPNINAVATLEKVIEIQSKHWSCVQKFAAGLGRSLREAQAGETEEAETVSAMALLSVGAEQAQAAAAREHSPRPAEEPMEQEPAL

For CN1CCc2c(n(Cc3ccc(C(=O)NO)cc3)c3ccccc23)C1 [Compound 7, N-Hydroxy-4-(2-methyl-1,2,3,4-tetrahydro-b-carbolin-9-ylmethyl)benzamide], the “selectivity for HDAC6 against HDAC1” value ([1]; HDAC1 IC50/HDAC6 IC50) was 3700 fold.
With O=C(CCn1c2ccccc2c2ccccc21)NO [Compound 8, 3-Carbazol-9-yl-N-hydroxy-propionamide] the IC50 [2, 12] was > 30 µM and the IC50 [1] was 1.59 ± 0.08 µM.
O=C(CCCCCCn1c2ccccc2c2ccccc21)NO [Compound 10, 7-Carbazol-9-ylheptanoic acid hydroxyamide] showed an IC50 [2] of 0.204 ± 0.087 µM and an IC50 [1] of 0.006 ± 0.002 µM.
With O=C(CCCCCCC(=O)Nc1ccc([C@H]2O[C@@H](CSc3nc(-c4ccccc4)c(-c4ccccc4)o3)C[C@@H](c3ccc(CO)cc3)O2)cc1)NO [Tubacin] the IC50 [3] was 3.35 ± 0.03 µM, the “rescue of mice with established colitis” value [4] was “able to rescue mice” and the IC50 [5] was 6.27 ± 0.29 µM. For the same compound, the IC50 [6] was 9.7 ± 1.8 µM.
In the case of CN1CCc2c(c3ccccc3n2Cc2ccc(C(=O)NO)cc2)C1 [Compound 6, N-Hydroxy-4-(2-methyl-1,2,3,4-tetrahydro-pyrido[4,3-b]indol-5-ylmethyl)benzamide], the “signs of overt toxicity (food and liquid intake, weight loss, locomotion, exploratory behavior)” value ([7]; during the memory experiments) is reported as “no signs of overt toxicity”, the “freezing response (contextual fear conditioning)” value ([7]; vehicle-infused mice, 25 mg/kg ip) is reported as “no effect” and the “effects on motor, sensorial, or motivational skills” value [8] is reported as “no effects”. For the same compound, the “concentration enhancing murine Treg suppression” value [9] was “greater than 100 μM”, the body weight [10] was “No loss of body weight” and the “toxicity to neurons when tested alone” value ([11]; alone (no HCA), all concentrations shown) was “no toxicity”. The “concentration at which dose-dependent protection against HCA-induced neuronal cell death starts” value ([11]; with HCA 5 mM, 24 h) was 5 µM.
For O=C(NO)n1c2ccccc2c2ccccc21 [Compound 13, Carbazole-9-carboxylic acid hydroxyamide], the IC50 [2, 12] was > 30 µM and the IC50 [1] was > 30 µM.
For O=C(CCCCn1c2ccccc2c2ccccc21)NO [Compound 9, 5-Carbazol-9-yl-pentanoic acid hydroxyamide], the IC50 [2] was 12.8 ± 0.7 µM and the IC50 [1] was 2.63 ± 0.04 µM.
